Experimental data reported in US6114373A, “N-acetyl-5,6-dimethoxytryptamine and its free radical scavenging activity” (priority 1998, dated 2000).
“Also recorded” adds a separate entry of the source.

Assays:
[1] = system: pyramidal neurons in the hippocampal CA3 area; experiment: Morphological observations of hippocampus of KA-treated mice (light microscopy); format: in vivo, mice (male CD2-FI); conditions: seven days following treatment; KA 40 mg/kg s.c. with or without 5 mg/kg compound I or melatonin; hematoxylin and eosin
Protocol: (§1) Kainic acid (KA) was employed to test the in vivo free radical scavenging and antioxidant activities of compound I. KA is an excitatory neurotoxin which destroys neuronal cells by free radical generation (Coyle and Schwarcz, Nature 263: 244-246 1976). Male CD2-FI mice (26-30 g) were chosen as the experimental subject. The mice were housed in windowless room with automatically regulated temperature 22±2° C. and 14 h light/10 h dark cycle. The mice received standard laboratory chow and water ad libitum. The mice were randomized into 4 groups.
Seven days following the treatment, representive mice in each of the groups mentioned above were sacrificed. The brains were immersed in normal fixation buffer. The hippocampi and surrounding tissue were dissected from the whole brain, cut and stained with hematoxylin and eosin. The morphological assessment of neuronal damage was determined by using light microscopy. In the brains of control mice no visible neuronal damage was observed. […] The induced neuronal damage was concentrated in the hippocampal CA3 area. The total histological architecture of CA3 area was altered. Virtually all of the pyrimadal neurons in this area were destroyed. The cell membranes appeared to have disintegrated and the nuclei of the cells were condensed and pyknotic. These changes are consistent with cell death. […] Few damaged neurons were observed microcopically in this area in these two groups (FIG. 6).

[2] = Hydroxyl radical scavenging: DMPO-HO. adduct formation (H2O2 + UV) measured by HPLC-EC; format: biochemical
Text: The hydroxyl radical (HO^.cndot.) is the most reactive and cytotoxic species among free radicals. […] Because of its high reactivity, HO^.cndot. once formed either in vitro or in vivo lasts for a very short time (half life about 10^-9 s) and, therefore, HO^.cndot. cannot be measured directly. However, by using a spin trapping agent, in this case 5,5-dimethylpyrroline-N-oxide (DMPO), an adduct (DMPO-HO^.cndot.) is formed between the spin trapping agent and the HO^.cndot.. The adducts have a longer half life and therefore they can be more readily quantified.
When DMPO is incubated in this system the DMPO will traps the HO^.cndot. to form a relatively stable DMPO- HO^.cndot. adduct.
HO^.cndot. +DMPO→DMPO-HO^.cndot.
In the present study, the DMPO-HO^.cndot. adduct was detected by an electro-chemical (EC) detector attached to a high performance liquid chromatography (HPLC) system. […] The applied potential was 1.0 volt and volume of the injected sample was 20 μl.

[3] = system: KA-induced neurobehavioral activities and death in mice; experiment: Neurobehavioral activities and death induced by kainic acid in mice; format: in vivo, mice (male CD2-FI); conditions: for Incidence, Seizures / Incidence, Tail arch / Incidence, Tremors / Incidence, Death (death rate): KA 40 mg/kg s.c., compound I or melatonin 5 mg/kg i.p. 10 min before KA, n=15; for Incidence, Seizures / Incidence, Tail arch / Incidence, Tremors: 4 h observation
Protocol: as §1
Immediately following the injections, neurobehavioral changes were monitored. The observation period extended for 4 hours following the injections. The death rate at 48 hours was recorded. […] By contrast, all of the mice that received KA developed some neurobehavioral changes including arching of tail, tremors and seizures. The death rate in this group was 33%. […] Tremors and seizures decreased from 100% in the KA-treated mice to 40% (p=0.001), respectively,and the death rate was reduced to 20%.

[4] = system: brain lipid proxidation (MDA+4-HDA) in cerebral cortex; experiment: Brain oxidative damage test: lipid peroxidation product (LPO; MDA+4-HDA) in cerebral cortex of KA-treated mice; format: in vivo, mice (male CD2-FI); conditions: for level of LPO in brain (in words): KA 40 mg/kg s.c. plus compound I or melatonin 5 mg/kg i.p., 48 h, FIG. 5
Protocol: as §1
Forty-eight hours after treatment, 5 mice of each group were sacrificed and the cerebral cortex was excised and immediately placed on dry ice and stored at -80° C. for the lipid prooxidation product (LPO) assay. LPO is the most commonly used index of free radical damage and the assay used to measure the level of LPO is described in a kit avaliable from Calbiochem (LA Jolla, Calif.). LPO was expressed as malondialdehyde (MDA) and 4-hydroxyalkenals (4-HDA)/mg protein. The level of LPO in the cerebral cortex of mice in the control group was 3.47=0.18 nmol/mg protein; in KA injected mice the level of LPO was increased to 4.42=0.11 nmol/mg protein. This increase, when compared to the control mice, was great than 27% (p<0.05).

[5] = background statement; cited from earlier work
[6] = system: experimental animal life span; conditions: Pierpaoli and Regelson, Proc. Natl. Acad. Sci. USA 91: 787-791 1994; up to; cited from earlier work

With COc1cc2[nH]cc(CCNC(C)=O)c2cc1OC [Compound I, N-acetyl-5,6-dimethoxytryptamine] the “morphological assessment of neuronal damage, hippocampal CA3 area” value (“morphological assessment” below) [1] was “No obviously neuronal damage is observed; also recorded: the hippocampal CA3 area of the brain was still intact”, the “suppression of DMPO-HO. adduct formation (in words)” value ([2]; compared with melatonin, FIG. 3, dose-response, FIG. 4) was “efficacy is greater than that of melatonin” and the IC50 ([2]; read-out: IC50 (concentration required to produce 50% inhibition of the DMPO-HO. formation), H2O2 + UV (254 nm), DMPO spin trap, HPLC-EC) was 15 µM. For the same compound, the “Incidence, Seizures” value [3] was 20%, the “Incidence, Tail arch” value [3] was 40% and the “Incidence, Tremors” value [3] was 40%. The “Death (in words)” value ([3]; at 48 hours, KA 40 mg/kg s.c. plus compound I 5 mg/kg i.p.) was “none of them died”, the “Incidence, Death (death rate)” value ([3]; at 48 hours) was 0% and the “level of LPO in brain (in words)” value [4] was “reduced to control levels”.

In the case of C=C(C)[C@H]1CN[C@H](C(=O)O)[C@H]1CC(=O)O [KA], the “morphological assessment” value [1] is reported as “The morphological architecture of neurons in the hippocampal CA3 region were destroyed; also recorded: the pyramidal neurons of the hippocampus were severely damaged”, the “Incidence, Seizures” value [3] is reported as 100% and the “Incidence, Tail arch” value [3] is reported as 86%. For the same compound, the “Incidence, Tremors” value [3] was 100%, the “Incidence, Death (death rate)” value ([3]; at 48 hours) was 33% and the “increase of LPO level compared to control mice” value ([4]; 48 h after KA 40 mg/kg s.c., p<0.05) was greater than 27%.

In the case of COc1ccc2[nH]cc(CCNC(C)=O)c2c1 [melatonin], the “biological half life in the blood” value [5] is listed as 20-40 min, the “prolongation of experimental animal life span” value [6] is listed as “up to 27%” and the “morphological assessment” value [1] is listed as “No obviously neuronal damage is observed; also recorded: the hippocampal CA3 area of the brain was still intact”. For the same compound, the “Incidence, Seizures” value [3] was 40%, the “Incidence, Tail arch” value [3] was 33% and the “Incidence, Tremors” value [3] was 40%. For the same compound, the “Incidence, Death (death rate)” value ([3]; at 48 hours) was 20% and the “level of LPO in brain (in words)” value [4] was “reduced to control levels”.
